The numbers were not newly measured in PMC5729432, “A Phase 1 study of ARQ 087, an oral pan-FGFR inhibitor in patients with advanced solid tumours” (British Journal of Cancer, 2017), which cites them from elsewhere.

The test system of data set [1] is patients with advanced solid tumors. On the set-up: method as in Tabernero et al, 2015. Conditions: ref Tabernero et al, 2015.
The next data set has as its system patients. Set-up: method as in Nogova et al, 2017. Conditions: at the RP2D; ref Nogova et al, 2017.
In data set [2] the test system is patients with advanced solid tumours. On the set-up: method as in Andre et al, 2013b; Saka et al, 2017. Conditions: ref Andre et al, 2013b; Saka et al, 2017.

On to `COc1cc(OC)cc(N(CCNC(C)C)c2ccc3ncc(-c4cnn(C)c4)nc3c2)c1` [JNJ-42756493], for which, in data set [1], the AE asthenia is 55%, the AE constipation is reported as 34%, the AE decreased appetite is on record as 32% and the AE dry mouth is recorded as 45%. In data set [1], the AE hyperphosphataemia is given as 65%, the AE nail toxicity is 35%, the “dose interruptions for hyperphosphataemia” value is listed as 31% and the “dose modifications for hyperphosphataemia” value is recorded as 8%.
In the case of `CCN1CCN(c2ccc(Nc3cc(N(C)C(=O)Nc4c(Cl)c(OC)cc(OC)c4Cl)ncn3)cc2)CC1` [BGJ398], the “patients requiring dose adjustments or interruptions for hyperphosphataemia” value with patients was 50%.
In the case of `COc1cc(CCc2cc(NC(=O)c3ccc(N4CC(C)NC(C)C4)cc3)n[nH]2)cc(OC)c1` (stereo not shown) [AZD3547], in data set [2], the “common treatment-related AEs” value is “fatigue, mucositis, nausea, CSR, and hyperphosphataemia”.
